From publication PMC6482079 (European journal of pharmaceutical sciences : official …, 2019)

Legend:
[1] = system: B/Bris/60/2008 (Victoria); assay: Plaque reduction assay in ST6Gal I-overexpressing MDCK cells; format: cell-based, influenza B virus; conditions: for Drug sensitivity: sensitivity of the strain to the named drug
[2] = system: B/Wisconsin/1/2010 (Yamagata); assay: as above; format: cell-based, influenza B virus; conditions: for Drug sensitivity: sensitivity of the strain to the named drug

| Structure (SMILES) | Drug sensitivity [1] | Drug sensitivity [2] | SI (selectivity index) ([1]; CC50/EC50) | EC50 ([1]; Influenza B virus, MDCK) [nM] | SI (selectivity index) ([2]; CC50/EC50) | EC50 ([2]; Influenza B virus, MDCK) [nM] |
| --- | --- | --- | --- | --- | --- | --- |
| NC12CC3CC(CC(C3)C1)C2 [Amantadine, amantadine] | Resistant | Resistant | – | – | – | – |
| Cc1cc(OCc2nnc(SC3CCCC3)n2-c2cccnc2)ccc1-c1ccc(S(C)(=O)=O)cc1 [NMS-873] | – | – | 97 | 28 ± 8 | 78 | 35 ± 5 |
| CCC(CC)O[C@@H]1C=C(C(=O)O)C[C@H](N)[C@H]1NC(C)=O [Oseltamivir carboxylate] | Sensitive | Sensitive | – | – | – | – |
